# Experimental data taken from patent US11220504B2, “Pyrrolo[3,2-d] pyrimidine derivatives for the treatment of viral infections and other diseases” (JANSSEN SCIENCES IRELAND UNLIMITED COMPANY, priority 2012, dated 2022).
# Key:
# [1] = system: interferon-stimulated responsive elements (ISRE); assay: Activation of ISRE promoter elements by conditioned media from PBMC (HEK-ISREluc); assay type: cell-based, human; settings: Homo sapiens; conditioned media from PBMC transferred to HEK-ISREluc cells, 24 hours; lowest effective concentration; read-out: PBMC LEC
# Outline: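 Human PBMCs (≥2 donors, RPMI + 10% human AB serum, 2×10^5 cells/well) incubated overnight with compound; supernatant transferred to HEK293 cells stably carrying pISRE-Luc for 24 h, then luciferase read. LEC = compound concentration on PBMCs giving luciferase signal at least two-fold above assay SD; recombinant IFN-α-2a standard.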
# human TLR8 = target: T1, human TLR8 (Homo sapiens, UniProt Q9NR97); assay: TLR8 cellular reporter assay (HEK293, NFκB-luc); assay type: cell-based; settings: HEK293 cells transfected with CMV-TLR8 and NFκB-luc, 6 hours incubation; lowest effective concentration
# T1 construct: expressed in transfected cells; host or cells: HEK293 cells, transient transfection with TLR8 plasmid and NFκB-luc plasmid
# T1 sequence (Q9NR97 27-1041): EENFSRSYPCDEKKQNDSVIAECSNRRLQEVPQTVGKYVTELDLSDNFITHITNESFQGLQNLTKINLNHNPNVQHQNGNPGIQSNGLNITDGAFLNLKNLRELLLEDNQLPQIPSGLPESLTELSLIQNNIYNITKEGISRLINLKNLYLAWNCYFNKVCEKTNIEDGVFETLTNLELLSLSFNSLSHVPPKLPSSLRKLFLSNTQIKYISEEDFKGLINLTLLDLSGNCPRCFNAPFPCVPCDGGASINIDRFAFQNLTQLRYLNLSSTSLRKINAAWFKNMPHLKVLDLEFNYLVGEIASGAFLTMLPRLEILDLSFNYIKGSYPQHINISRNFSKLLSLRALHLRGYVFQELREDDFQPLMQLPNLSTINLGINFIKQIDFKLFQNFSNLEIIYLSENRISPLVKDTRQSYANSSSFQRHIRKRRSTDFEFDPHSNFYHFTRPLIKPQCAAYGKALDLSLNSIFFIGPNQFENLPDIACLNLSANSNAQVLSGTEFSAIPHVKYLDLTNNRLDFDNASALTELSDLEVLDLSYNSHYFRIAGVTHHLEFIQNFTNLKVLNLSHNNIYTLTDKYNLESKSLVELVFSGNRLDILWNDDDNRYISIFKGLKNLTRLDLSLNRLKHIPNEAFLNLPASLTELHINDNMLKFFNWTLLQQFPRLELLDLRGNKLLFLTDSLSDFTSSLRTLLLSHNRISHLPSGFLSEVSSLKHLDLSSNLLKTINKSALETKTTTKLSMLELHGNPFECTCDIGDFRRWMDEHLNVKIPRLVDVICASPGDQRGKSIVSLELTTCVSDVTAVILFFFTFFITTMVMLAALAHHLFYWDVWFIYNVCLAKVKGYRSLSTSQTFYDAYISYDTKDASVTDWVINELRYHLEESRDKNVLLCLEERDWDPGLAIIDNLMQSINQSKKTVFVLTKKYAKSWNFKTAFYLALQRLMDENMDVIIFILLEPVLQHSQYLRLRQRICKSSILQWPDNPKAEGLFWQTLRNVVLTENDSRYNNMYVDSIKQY
# Outline: (§1)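 HEK293 cells transiently transfected with receptor expression vector plus NFκB-luciferase reporter, exposed to compound (added in 4% DMSO) for 6 hours at 37° C, 5% CO2. Luciferase activity measured by luminescence; dose-response curves from quadruplicate measurements.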
# human TLR7 = target: T2, human TLR7 (Homo sapiens, UniProt Q9NYK1); assay: TLR7 cellular reporter assay (HEK293, NFκB-luc); assay type: cell-based; settings: HEK293 cells transfected with CMV-TLR7 and NFκB-luc, 6 hours incubation; lowest effective concentration
# T2 construct: expressed in transfected cells; host or cells: HEK293 cells, transient transfection with CMV-TLR7 plasmid and NFκB-luc plasmid
# T2 sequence (Q9NYK1 27-1049): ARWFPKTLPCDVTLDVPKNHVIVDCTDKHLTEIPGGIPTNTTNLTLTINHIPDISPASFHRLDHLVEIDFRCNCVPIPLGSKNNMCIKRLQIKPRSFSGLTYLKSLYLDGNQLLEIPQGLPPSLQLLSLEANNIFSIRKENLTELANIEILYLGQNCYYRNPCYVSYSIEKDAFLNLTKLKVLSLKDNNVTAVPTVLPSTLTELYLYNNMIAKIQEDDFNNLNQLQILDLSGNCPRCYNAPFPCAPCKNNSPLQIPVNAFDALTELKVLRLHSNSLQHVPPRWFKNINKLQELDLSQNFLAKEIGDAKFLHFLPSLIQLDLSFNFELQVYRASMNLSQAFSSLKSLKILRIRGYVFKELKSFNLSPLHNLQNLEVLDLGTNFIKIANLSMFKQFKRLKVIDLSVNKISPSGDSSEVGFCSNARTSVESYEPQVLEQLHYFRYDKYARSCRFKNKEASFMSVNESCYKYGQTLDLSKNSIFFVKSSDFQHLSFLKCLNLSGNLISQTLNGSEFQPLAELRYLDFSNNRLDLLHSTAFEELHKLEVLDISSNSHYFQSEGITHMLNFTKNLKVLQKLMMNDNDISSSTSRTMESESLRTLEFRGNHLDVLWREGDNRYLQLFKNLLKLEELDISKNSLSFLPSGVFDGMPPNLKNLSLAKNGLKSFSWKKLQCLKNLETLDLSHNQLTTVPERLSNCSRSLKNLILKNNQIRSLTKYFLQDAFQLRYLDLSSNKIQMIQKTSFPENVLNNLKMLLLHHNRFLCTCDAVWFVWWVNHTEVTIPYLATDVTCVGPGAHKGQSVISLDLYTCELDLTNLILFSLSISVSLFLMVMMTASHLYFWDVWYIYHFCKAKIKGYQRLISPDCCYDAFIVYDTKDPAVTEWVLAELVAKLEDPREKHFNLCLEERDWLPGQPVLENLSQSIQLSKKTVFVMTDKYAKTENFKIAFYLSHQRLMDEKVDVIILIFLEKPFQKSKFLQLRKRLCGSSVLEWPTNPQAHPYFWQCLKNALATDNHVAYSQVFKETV
# Outline: as §1
SMILES,minimal effective concentration [1] [µM],TLR8 LEC (human TLR8) [µM],TLR7 LEC (human TLR7) [µM]
COCCn1ccc2nc(N)nc(NC(C)COC)c21 (stereo not drawn) [Compound 212],2.09,>25,7.60
COc1cccnc1Cn1ccc2nc(N)nc(NCc3ncc(C)o3)c21 [Compound 213],0.001,>25,<0.01
COc1ccccc1Cn1ccc2nc(N)nc(NCc3ncc(C)s3)c21 [Compound 215],0.001,>25,<0.01
